Laboratory results as given in patent US10646479B2, “Use of N-(4-iodobenzoylamino)-5-ethyl-1,2,3,6-tetrahydropyridine as a treatment for cancer” (Florida A&M University, priority 2018, dated 2020).

Key:
Format in all cases: cell-based, human
[1] = system: Ishikawa cell line; experiment: CellTiter-Glo (CTG) luminescent cell viability assay, Ishikawa cells; settings: for IC50: Ishikawa endometrial adenocarcinoma cells, CTG viability
Protocol: (§1) This compound was evaluated against three types of cancer cells: Ishikawa, MDA-MB-231, and MCF-7 using the CellTiter-Glo (CTG) luminescent cell viability assay. Ishikawa cell line is an endometrial adenocarcinoma isolated from a person. MDA-MB-231 is a triple negative breast cancer cell line isolated from a person. MCF-7 is an estrogen receptor positive breast cancer cell line isolated from a person.

[2] = system: MCF-7 cell line; experiment: CellTiter-Glo (CTG) luminescent cell viability assay, MCF-7 cells; settings: for IC50: MCF-7 estrogen receptor positive breast cancer cells, CTG viability
Protocol: as §1

[3] = system: MDA-MB-231 cell line; experiment: CellTiter-Glo (CTG) luminescent cell viability assay, MDA-MB-231 cells; settings: for IC50: MDA-MB-231 triple negative breast cancer cells, CTG viability
Protocol: as §1

Row | Compound | IC50 [1] | IC50 [2] | IC50 [3] | IC50 ([1]; Homo sapiens) | activity compared to Tamoxifen and 4-Hydroxytamoxifen ([1]; Ishikawa cell line) | IC50 ([2]; Homo sapiens, MCF7) | activity compared to Tamoxifen and 4-Hydroxytamoxifen ([2]; MCF-7 cell line) | IC50 ([3]; Homo sapiens) | activity compared to Tamoxifen and 4-Hydroxytamoxifen ([3]; MDA-MB-231 cell line)
1 | 4-Hydroxytamoxifen [reference compound] | 26.4 µM | 6.78 µM | 23.1 µM | – | – | – | – | – | –
2 | CCC1=CCCN(NC(=O)c2ccc(I)cc2)C1 [EH-1-40, N-(4-iodobenzoylamino)-5-ethyl-1,2,3,6-tetrahydropyridine] | – | – | – | 2.93 µM | better activity | 1.25 µM | better activity | 5.67 µM | better activity
